Among the data in ChEMBL document CHEMBL1145540, “Zidovudine inhibits thymidine phosphorylation in the isolated perfused rat heart” (Antimicrob Agents Chemother, 2007) are IC50 values, retold here.

The subject of this experiment is Heart. Briefly: Inhibition of [3H]thymidine phosphorylation in isolated perfused Sprague-Dawley rat heart after 30 mins. In kind it is functional, tissue-based.

pIC50: −log10 of the molar value.

As for `Cc1cn([C@H]2C[C@H](N=[N+]=[N-])[C@@H](CO)O2)c(=O)[nH]c1=O` [ZIDOVUDINE], the negative-log IC50 (pIC50) was 4.61.
